Laboratory results published in ChEMBL document CHEMBL4837259, “Comprehensive Approach of 19F Nuclear Magnetic Resonance, Enzymatic, and In Silico Methods for Site-Specific Hit Selection and Validation of Fragment Molecules that Inhibit Methionine γ-Lyase Activity” (J Med Chem, 2021).
Activity calls are given as the source filed them. No cut-off for these calls is given here.

Assays:
Fusobacterium nucleatum [1] = test: Inhibition of Fusobacterium nucleatum ATCC 25586 recombinant MGL K238A mutant expressed in Escherichia coli BL21 (DE3) assessed as decrease in signal intensity by measuring recovery ratio by 19F NMR based competition assay relative to wild type; parameters: concentration or dose not given beside the values
Fusobacterium nucleatum [2] = test: Inhibition of Fusobacterium nucleatum ATCC 25586 recombinant MGL Y56F mutant expressed in Escherichia coli BL21 (DE3) assessed as decrease in signal intensity by measuring recovery ratio by 19F NMR based competition assay relative to wild type; parameters: concentration or dose not given beside the values
Fusobacterium nucleatum [3] = test: Inhibition of Fusobacterium nucleatum ATCC 25586 recombinant MGL R373A mutant expressed in Escherichia coli BL21 (DE3) assessed as decrease in signal intensity by measuring recovery ratio by 19F NMR based competition assay relative to wild type; parameters: scale not given: the % may be the effect or the level left
[4] = target: T1, L-methionine gamma-lyase (Fusobacterium nucleatum subsp. nucleatum) (UniProt Q8RDT4); test: Inhibition of Fusobacterium nucleatum ATCC 25586 recombinant wild type MGL expressed in Escherichia coli BL21 (DE3) assessed as formation of 2-ketobutyrate using L-methionine as substrate by enzymatic assay; parameters: concentration or dose not given beside the values; conditions: concentration not given here
T1 sequence (whole entry): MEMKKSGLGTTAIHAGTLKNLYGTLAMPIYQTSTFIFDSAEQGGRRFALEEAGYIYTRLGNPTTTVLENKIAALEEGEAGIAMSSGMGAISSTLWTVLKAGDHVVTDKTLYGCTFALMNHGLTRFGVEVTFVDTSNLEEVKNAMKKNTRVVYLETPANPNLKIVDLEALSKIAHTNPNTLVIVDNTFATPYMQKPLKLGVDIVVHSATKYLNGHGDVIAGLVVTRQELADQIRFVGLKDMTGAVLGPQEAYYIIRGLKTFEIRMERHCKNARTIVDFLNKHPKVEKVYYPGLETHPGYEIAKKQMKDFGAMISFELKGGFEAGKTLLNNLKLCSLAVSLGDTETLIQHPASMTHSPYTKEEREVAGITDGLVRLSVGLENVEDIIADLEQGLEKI

Fusobacterium nucleatum [5] = test: Inhibition of Fusobacterium nucleatum ATCC 25586 recombinant MGL R58K mutant expressed in Escherichia coli BL21 (DE3) assessed as decrease in signal intensity by measuring recovery ratio by 19F NMR based competition assay relative to wild type; parameters: scale not given: the % may be the effect or the level left
Fusobacterium nucleatum [6] = test: Inhibition of Fusobacterium nucleatum ATCC 25586 recombinant MGL R373K mutant expressed in Escherichia coli BL21 (DE3) assessed as decrease in signal intensity by measuring recovery ratio by 19F NMR based competition assay relative to wild type; parameters: concentration or dose not given beside the values
Fusobacterium nucleatum [7] = test: Inhibition of Fusobacterium nucleatum ATCC 25586 recombinant MGL C113S mutant expressed in Escherichia coli BL21 (DE3) assessed as decrease in signal intensity by measuring recovery ratio by 19F NMR based competition assay relative to wild type; parameters: scale not given: the % may be the effect or the level left
Fusobacterium nucleatum [8] = test: Inhibition of Fusobacterium nucleatum ATCC 25586 recombinant MGL Y111F mutant expressed in Escherichia coli BL21 (DE3) assessed as decrease in signal intensity by measuring recovery ratio by 19F NMR based competition assay relative to wild type; parameters: concentration or dose not given beside the values
[9] = target: T1, L-methionine gamma-lyase (Fusobacterium nucleatum subsp. nucleatum); test: Inhibition of Fusobacterium nucleatum ATCC 25586 recombinant wild type MGL expressed in Escherichia coli BL21 (DE3) assessed as decrease in signal intensity by 19F NMR based competition assay relative to control; parameters: concentration or dose not given beside the values
Fusobacterium nucleatum [10] = test: Inhibition of Fusobacterium nucleatum ATCC 25586 recombinant MGL R58A mutant expressed in Escherichia coli BL21 (DE3) assessed as decrease in signal intensity by measuring recovery ratio by 19F NMR based competition assay relative to wild type; parameters: scale not given: the % may be the effect or the level left

In the case of `CC(C)(C)OC(=O)N1CCC(CN)(c2ccccc2C(F)(F)F)CC1`, the Activity (Fusobacterium nucleatum [1]) is reported as 50%, the Activity (Fusobacterium nucleatum [2]) is reported as 80% and the Activity (Fusobacterium nucleatum [3]) is reported as “Active”. The inhibition [4] was 41%, the Activity (Fusobacterium nucleatum [5]) was 80% and the Activity (Fusobacterium nucleatum [6]) was “Active”. For the same molecule, the Activity (Fusobacterium nucleatum [7]) was 50%, the Activity (Fusobacterium nucleatum [8]) was “Active” and the Activity [9] was 75%. The Activity (Fusobacterium nucleatum [10]) was “Active”.

In the case of `O=C(O)c1ccnc(OC(F)F)c1`, the Activity (Fusobacterium nucleatum [1]) is reported as “Active”, the Activity (Fusobacterium nucleatum [2]) is reported as 80% and the Activity (Fusobacterium nucleatum [3]) is reported as 80%. For the same molecule, the inhibition [4] was 1.5%, the Activity (Fusobacterium nucleatum [5]) was 80% and the Activity (Fusobacterium nucleatum [6]) was 50%. For the same molecule, the Activity (Fusobacterium nucleatum [7]) was 50%, the Activity (Fusobacterium nucleatum [8]) was “Active” and the Activity [9] was 67%. For the same molecule, the Activity (Fusobacterium nucleatum [10]) was 80%.

For `CC(C)(C)OC(=O)N1CCC(CN)(Cc2ccc(F)cc2)CC1`, the Activity (Fusobacterium nucleatum [1]) was “inactive”, the Activity (Fusobacterium nucleatum [2]) was 80% and the Activity (Fusobacterium nucleatum [3]) was “Active”. The inhibition [4] was 27.7%, the Activity (Fusobacterium nucleatum [5]) was 50% and the Activity (Fusobacterium nucleatum [6]) was “Active”. For the same molecule, the Activity (Fusobacterium nucleatum [7]) was 50%, the Activity (Fusobacterium nucleatum [8]) was “inactive” and the Activity [9] was 70%. The Activity (Fusobacterium nucleatum [10]) was “Active”.

For `CC(C)(C)OC(=O)N1CCC(C(=O)O)(c2ccc(C(F)(F)F)cc2)CC1`, the Activity (Fusobacterium nucleatum [1]) was 50%, the Activity (Fusobacterium nucleatum [2]) was 80% and the Activity (Fusobacterium nucleatum [3]) was “Active”. The inhibition [4] was 12.9%, the Activity (Fusobacterium nucleatum [5]) was 50% and the Activity (Fusobacterium nucleatum [6]) was “Active”. The Activity (Fusobacterium nucleatum [7]) was 50%, the Activity (Fusobacterium nucleatum [8]) was “Active” and the Activity [9] was 96%. For the same molecule, the Activity (Fusobacterium nucleatum [10]) was “Active”.

`O=C(O)c1cn(-c2ccc(F)cc2)cn1` was tested, and the Activity (Fusobacterium nucleatum [1]) was “Active”, the Activity (Fusobacterium nucleatum [2]) was “Active” and the Activity (Fusobacterium nucleatum [3]) was 80%. The inhibition [4] was 6.2%, the Activity (Fusobacterium nucleatum [5]) was 80% and the Activity (Fusobacterium nucleatum [6]) was “Active”. The Activity (Fusobacterium nucleatum [7]) was 50%, the Activity (Fusobacterium nucleatum [8]) was “Active” and the Activity [9] was 58%. It also gave an Activity (Fusobacterium nucleatum [10]) of 80%.

`CC(C)(C)OC(=O)N[C@H]1CC[C@H](N2Cc3cccc(F)c3C2=O)CC1` was tested, and the Activity (Fusobacterium nucleatum [1]) was “Active”, the Activity (Fusobacterium nucleatum [2]) was 50% and the Activity (Fusobacterium nucleatum [3]) was “Active”. For the same molecule, the inhibition [4] was 53.7%, the Activity (Fusobacterium nucleatum [5]) was “Active” and the Activity (Fusobacterium nucleatum [6]) was “Active”. The Activity (Fusobacterium nucleatum [7]) was “Active”, the Activity (Fusobacterium nucleatum [8]) was “Active” and the Activity [9] was 100%. The Activity (Fusobacterium nucleatum [10]) was “Active”.

In the case of `O=C(O)c1cncc(OCC(F)(F)F)c1`, the Activity (Fusobacterium nucleatum [1]) is reported as “Active”, the Activity (Fusobacterium nucleatum [2]) is reported as 80% and the Activity (Fusobacterium nucleatum [3]) is reported as 50%. For the same molecule, the inhibition [4] was 9.1%, the Activity (Fusobacterium nucleatum [5]) was 80% and the Activity (Fusobacterium nucleatum [6]) was “Active”. The Activity (Fusobacterium nucleatum [7]) was “inactive”, the Activity (Fusobacterium nucleatum [8]) was 50% and the Activity [9] was 35%. It also gave an Activity (Fusobacterium nucleatum [10]) of 80%.

With `CC(C)(C)OC(=O)N1CCC(CN)(c2cccc(F)c2)CC1` the Activity (Fusobacterium nucleatum [1]) was “Active”, the Activity (Fusobacterium nucleatum [2]) was 50% and the Activity (Fusobacterium nucleatum [3]) was “inactive”. The inhibition [4] was 16.1%, the Activity (Fusobacterium nucleatum [5]) was 80% and the Activity (Fusobacterium nucleatum [6]) was “Active”. The Activity (Fusobacterium nucleatum [7]) was “Active”, the Activity (Fusobacterium nucleatum [8]) was “Active” and the Activity [9] was 65%. The Activity (Fusobacterium nucleatum [10]) was “Active”.

With `CC(C)(C)OC(=O)N1CCC(CN)(c2ccccc2F)CC1` the Activity (Fusobacterium nucleatum [1]) was “Active”, the Activity (Fusobacterium nucleatum [2]) was 80% and the Activity (Fusobacterium nucleatum [3]) was “inactive”. For the same molecule, the inhibition [4] was 17.2%, the Activity (Fusobacterium nucleatum [5]) was 50% and the Activity (Fusobacterium nucleatum [6]) was “Active”. For the same molecule, the Activity (Fusobacterium nucleatum [7]) was 50%, the Activity (Fusobacterium nucleatum [8]) was “Active” and the Activity [9] was 77%. The Activity (Fusobacterium nucleatum [10]) was 50%.

`Fc1cccc(-c2nnc3ccc(Br)cn23)c1` showed an inhibition [4] of 7.2% and an Activity [9] of 89%.

For `O=C(O)c1cn(-c2ccc(C(F)(F)F)cc2)cn1`, the Activity (Fusobacterium nucleatum [1]) was “Active”, the Activity (Fusobacterium nucleatum [2]) was 80% and the Activity (Fusobacterium nucleatum [3]) was 80%. For the same molecule, the inhibition [4] was 45.3%, the Activity (Fusobacterium nucleatum [5]) was 80% and the Activity (Fusobacterium nucleatum [6]) was “Active”. The Activity (Fusobacterium nucleatum [7]) was “Active”, the Activity (Fusobacterium nucleatum [8]) was 50% and the Activity [9] was 87%. It also gave an Activity (Fusobacterium nucleatum [10]) of 50%.

Molecule `O=C(O)c1cnn(-c2ccc(F)cc2)c1` has an Activity (Fusobacterium nucleatum [1]) of 50%, an Activity (Fusobacterium nucleatum [2]) of 80% and an Activity (Fusobacterium nucleatum [3]) of 80%. The inhibition [4] was -0.6%, the Activity (Fusobacterium nucleatum [5]) was 50% and the Activity (Fusobacterium nucleatum [6]) was “Active”. For the same molecule, the Activity (Fusobacterium nucleatum [7]) was “Active”, the Activity (Fusobacterium nucleatum [8]) was 80% and the Activity [9] was 69%. The Activity (Fusobacterium nucleatum [10]) was 80%.

For `O=C(O)c1cn(-c2cccc(F)c2)cn1`, the Activity (Fusobacterium nucleatum [1]) was “inactive”, the Activity (Fusobacterium nucleatum [2]) was 80% and the Activity (Fusobacterium nucleatum [3]) was 80%. The inhibition [4] was -4.1%, the Activity (Fusobacterium nucleatum [5]) was 80% and the Activity (Fusobacterium nucleatum [6]) was “inactive”. For the same molecule, the Activity (Fusobacterium nucleatum [7]) was “Active”, the Activity (Fusobacterium nucleatum [8]) was “inactive” and the Activity [9] was 36%. The Activity (Fusobacterium nucleatum [10]) was 80%.
